Laboratory results as given in article PMC7028039, “Convergent evolution of the UbiA prenyltransferase family underlies the independent acquisition of furanocoumarins in plants” (The New Phytologist, 2019).

Experiments:
[1] = molecular target: T1, FcPT1b (Ficus carica, UniProt A0A6S4PSN9); test: microsomal prenyltransferase assay, HPLC and LC-MS2 product identification; format: biochemical; details: 50 µM umbelliferone, 200 µM DMAPP, 10 mM MgCl2; product demethylsuberosin (DMS)
T1 construct: full CDS with transit peptide, pGWB502 (35S promoter), transient expression in Nicotiana benthamiana leaves, microsomes
T1 sequence (A0A6S4PSN9 1-422): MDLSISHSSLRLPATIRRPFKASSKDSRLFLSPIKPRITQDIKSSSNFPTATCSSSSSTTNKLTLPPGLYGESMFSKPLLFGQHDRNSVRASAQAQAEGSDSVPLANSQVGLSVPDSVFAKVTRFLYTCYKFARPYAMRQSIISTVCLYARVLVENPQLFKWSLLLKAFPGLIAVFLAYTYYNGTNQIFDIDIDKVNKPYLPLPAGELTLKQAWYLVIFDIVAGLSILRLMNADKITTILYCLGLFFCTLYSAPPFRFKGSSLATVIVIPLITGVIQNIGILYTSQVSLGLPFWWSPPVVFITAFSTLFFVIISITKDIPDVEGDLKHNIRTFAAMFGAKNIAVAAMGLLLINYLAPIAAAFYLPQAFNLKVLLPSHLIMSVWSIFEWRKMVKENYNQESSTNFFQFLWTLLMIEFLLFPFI

[2] = molecular target: FcPT1a (Ficus carica, UniProt A0A6S4Q0J8); details: read-out: apparent Km; co-substrate DMAPP; Mg2+; 28 °C
Procedure: microsomal prenyltransferase assay, HPLC-PDA, nonlinear fit on FcPT1a | The apparent K m values of FcPT1a for umbelliferone and DMAPP were determined

[3] = test system: CC(C)=CCOP(=O)(O)OP(=O)(O)O; test: cells, lysate or membranes; details: co-substrate umbelliferone, Mg2+, 28 °C

| Km [2] [µM] | Compound | microsomal prenyltransferase assay, HPLC and LC-MS2 product identification [1] | Km [3] [µM] |
| --- | --- | --- | --- |
| – | CC(C)=CCOP(=O)(O)OP(=O)(O)O [dimethylallyl diphosphate] | UDT reaction mixtures composed of microsomes containing recombinant FcPT1a/b proteins yielded an enzymatic reaction product | – |
| 35 ± 4 | O=c1ccc2ccc(O)cc2o1 [umbelliferone] | recombinant FcPT1a/b proteins yielded an enzymatic reaction product concomitant with the consumption of umbelliferone | – |
| – | FcPT1a (Ficus carica) | – | 17 ± 1 |
